# Results reported in patent US20260053861A1, “CELL COMPOSITIONS AND METHODS OF USING THE SAME” (THE REGENTS OF THE UNIVERSITY OF CALIFORNIA, priority 2022, published 2026).
# Where a name gives a salt, the structure may show the parent alone.
# Test system: hPSC-SCs
# Conditions: not given
row,Compound,z.score.t
1,CCC1(c2cccc(O)c2)CCCCN(C)C1 (stereo not shown) [Meptazinol hydrochloride],0.01078
2,COC(=O)Nc1nc2ccc(SC(C)C)cc2[nH]1 [Methiazole],−1.263
3,COc1ccc2[nH]c3c(c2c1)CCN=C3C [Methoxy-6-harmalan],−0.1216
4,Cc1cc(C(C)(C)CC(C)(C)C)ccc1OCCOCC[N+](C)(C)Cc1ccccc1.[Cl-] [Methyl benzethonium chloride],−1.169
5,CC[C@@H](CO)NC(=O)[C@@H]1C=C2c3cccc4[nH]cc(c34)C[C@H]2N(C)C1 [Methylergometrine maleate],1.669
6,C[C@H]1NC(=O)NC1=O [Methylhydantoin-5-(D)],−0.9395
7,C[C@@H]1NC(=O)NC1=O [Methylhydantoin-5-(L)],1.101
8,C[C@H]1C(=O)O[C@@H]2CCN3CC=C(COC(=O)[C@](C)(O)[C@]1(C)O)[C@H]23 [Monocrotaline],0.5046
9,Cc1ccsc1/C=C/C1=NCCCN1C [Morantel tartrate],−0.06439
10,c1cncc(C2=NCCC2)c1 [Myosmine],0.9865

# Same assay, conditions: HTS viability of hPSC-SCs in the presence of 30 mM glucose; Prestwick library; Table S4
row,Compound,z.score.t
1,Cc1cccc(Nc2ccccc2C(=O)O)c1C [Mefenamic acid],1.751
2,CCN(CC)CCNC(=O)COc1ccc(OC)cc1 [Mefexamide hydrochloride],0.189
3,OC(c1cc(C(F)(F)F)nc2c(C(F)(F)F)cccc12)C1CCCCN1 (stereo not shown) [Mefloquine hydrochloride],−1.637
4,CNC[C@H](O)[C@@H](O)[C@H](O)[C@H](O)CO [Meglumine],−0.9741
5,COc1ccc2[nH]cc(CCNC(C)=O)c2c1 [Melatonin],0.006455
6,Cc1cnc(NC(=O)C2=C(O)c3ccccc3S(=O)(=O)N2C)s1 [Meloxicam],1.481
7,CC12CC3CC(C)(C1)CC(N)(C3)C2 [Memantine Hydrochloride],−0.9598
8,CC1=CC(=O)c2ccccc2C1=O [Menadione],−1.949
9,C[N+]1(C)CCCC(OC(=O)C(O)(c2ccccc2)c2ccccc2)C1 (stereo not shown) [Mepenzolate bromide],0.03421
10,Cc1ccccc1OCC(O)CO (stereo not shown) [Mephenesin],−1.753
11,CCC1(c2ccccc2)NC(=O)N(C)C1=O (stereo not shown) [Mephenytoin],−0.9817
12,CCCNC(C)(C)COC(=O)c1ccccc1 [Meprylcaine hydrochloride],−0.4953
13,Nc1ccc(O)c(C(=O)O)c1 [Mesalamine],−0.5745
14,CN1CCCCC1CCN1c2ccccc2Sc2ccc([S+](C)[O-])cc21 (stereo not shown) [Mesoridazine besylate],0.2816
15,C=N[C@@H](C(=O)N[C@@H]1C(=O)N2[C@@H]1SC(C)(C)[C@@H]2C(=O)O)c1ccccc1 [Metampicillin sodium salt],−1.069
16,CNCC(O)c1ccc(O)c(OC)c1.Cl (stereo not drawn) [Metanephrine hydrochloride DL],1.259
17,C[C@H](N)[C@H](O)c1cccc(O)c1 [Metaraminol bitartrate],1.088
18,CN1C[C@H](CNC(=O)OCc2ccccc2)C[C@@H]2c3cccc4c3c(cn4C)C[C@H]21 [Metergoline],1.211
19,CN(C)C(=N)N=C(N)N [Metformin hydrochloride],0.8639
20,CC(=O)OC(C)C[N+](C)(C)C (stereo not shown) [Methacholine chloride],1.554
21,C=C1c2cccc(O)c2C(=O)C2=C(O)[C@]3(O)C(=O)C(C(N)=O)=C(O)[C@@H](N(C)C)[C@@H]3[C@@H](O)[C@H]12 [Methacycline hydrochloride],−0.4684
22,CC[N+](C)(CC)CCOC(=O)C1c2ccccc2Oc2ccccc21 [Methantheline bromide],−0.3173
23,CN(C)CCN(Cc1cccs1)c1ccccn1 [Methapyrilene hydrochloride],0.1344
24,CC(=O)/N=c1/sc(S(N)(=O)=O)nn1C [Methazolamide],−0.3678

row,Compound,z.score.t
1,Cn1cc[nH]c1=S [Methimazole],−0.05622
2,CS(=N)(=O)CC[C@H](N)C(=O)O (stereo partly shown) [Methionine sulfoximine (L)],1.124
3,CSc1ccc2c(c1)C(N1CCN(C)CC1)Cc1ccccc1S2.O=C(O)/C=C\C(=O)O (stereo not shown) [Methiothepin maleate],−0.8821
4,COc1ccccc1OCC(O)COC(N)=O (stereo not shown) [Methocarbamol],−1.392
5,CN(Cc1cnc2nc(N)nc(N)c2n1)c1ccc(C(=O)N[C@@H](CCC(=O)O)C(=O)O)cc1 [Methotrexate],0.8875
6,COc1ccc2c(c1)N(C[C@H](C)CN(C)C)c1ccccc1S2.O=C(O)/C=C\C(=O)O [Methotrimeprazine maleat salt],−1.008
7,COc1ccc(OC)c(C(O)C(C)N)c1 (stereo not shown) [Methoxamine hydrochloride],1.064
8,COc1c2occc2cc2ccc(=O)oc12 [Methoxy-8-psoralen],1.124
9,C[N+]1(C)[C@@H]2CC[C@H]1C[C@@H](OC(=O)C(CO)c1ccccc1)C2 (stereo partly shown) [Methylatropine nitrate],1.238
10,"C[C@](N)(Cc1ccc(O)c(O)c1)C(=O)O [Methyldopa (L, −)]",0.006455
11,CCOC(=O)[C@@](C)(N)Cc1ccc(O)c(O)c1 [Methyldopate hydrochloride],−0.8464
12,"C[C@H]1C[C@@H]2[C@H]([C@@H](O)C[C@@]3(C)[C@H]2CC[C@]3(O)C(=O)CO)[C@@]2(C)C=CC(=O)C=C12 [Methylprednisolone, 6-alpha]",0.7665
13,Cc1cc2c(cc1S(N)(=O)=O)S(=O)(=O)CCC2 [Meticrane],−0.3156
14,CN1CCCC(CC2c3ccccc3Sc3ccccc32)C1 (stereo not shown) [Metixene hydrochloride],−0.9654
15,CCN(CC)CCNC(=O)c1cc(Cl)c(N)cc1OC [Metoclopramide monohydrochloride],1.024
16,Cc1ccccc1N1C(=O)c2cc(S(N)(=O)=O)c(Cl)cc2NC1C (stereo not shown) [Metolazone],0.3637
17,CC(=O)Nc1c(I)c(C(=O)N[C@H]2C(O)O[C@H](CO)[C@@H](O)[C@@H]2O)c(I)c(N(C)C(C)=O)c1I (stereo partly shown) [Metrizamide],1.421
18,Cc1ncc([N+](=O)[O-])n1CCO [Metronidazole],1.259
19,CC(C)(C(=O)c1cccnc1)c1cccnc1 [Metyrapone],1.178
20,"C[C@@]1(O)CCOC(=O)C1 [Mevalonic-D, L acid lactone]",0.2361
21,Cc1cccc(C)c1OCC(C)N (stereo not shown) [Mexiletine hydrochloride],0.6648
22,CN1CCN2c3ccccc3Cc3ccccc3C2C1 (stereo not shown) [Mianserine hydrochloride],0.8279
23,Clc1ccc(COC(Cn2ccnc2)c2ccc(Cl)cc2Cl)c(Cl)c1 (stereo not shown) [Miconazole],−1.873
24,COc1ccc(OC)c(C(O)CNC(=O)CN)c1 (stereo not shown) [Midodrine hydrochloride],0.5856

row,Compound,z.score.t
1,CC#C[C@]1(O)CC[C@H]2[C@@H]3CCC4=CC(=O)CCC4=C3[C@@H](c3ccc(N(C)C)cc3)C[C@@]21C [Mifepristone],−0.8392
2,Cc1[nH]c(=O)c(C#N)cc1-c1ccncc1 [Milrinone],0.3236
3,NC(Cn1ccc(=O)c(O)c1)C(=O)O (stereo not shown) [Mimosine],0.7491
4,Cc1cc(-c2ccccc2)nnc1NCCN1CCOCC1 [Minaprine dihydrochloride],−0.5003
5,CN(C)c1ccc(O)c2c1C[C@H]1C[C@H]3[C@H](N(C)C)C(O)=C(C(N)=O)C(=O)[C@@]3(O)C(O)=C1C2=O [Minocycline hydrochloride],−1.319
6,Nc1cc(N2CCCCC2)nc(N)[n+]1[O-] [Minoxidil],0.2479
7,O=C1c2c(O)ccc(O)c2C(=O)c2c(NCCNCCO)ccc(NCCNCCO)c21 [Mitoxantrone dihydrochloride],−0.3936
8,O=C(NCCN1CCOCC1)c1ccc(Cl)cc1 [Moclobemide],0.5822
9,CCc1c(C)[nH]c2c1C(=O)C(CN1CCOCC1)CC2 (stereo not shown) [Molindone hydrochloride],−0.1759
10,CCOC(=O)[N-]c1cn(N2CCOCC2)n[o+]1 [Molsidomine],0.713
11,C[C@@H]1C[C@H]2[C@@H]3CCC4=CC(=O)C=C[C@]4(C)[C@@]3(Cl)[C@@H](O)C[C@]2(C)[C@@]1(OC(=O)c1ccco1)C(=O)CCl [Mometasone furoate],0.1979
12,CC[C@@]1([C@@H]2O[C@@H]([C@H]3O[C@@](O)(CO)[C@H](C)C[C@@H]3C)C[C@@H]2C)CC[C@H]([C@]2(C)CC[C@]3(C[C@H](O)[C@@H](C)[C@@H]([C@@H](C)[C@@H](OC)[C@H](C)C(=O)O)O3)O2)O1 [Monensin sodium salt],−2.299
13,Oc1ccc(OCc2ccccc2)cc1 [Monobenzone],0.557
14,CCOC(=O)Nc1ccc2c(c1)N(C(=O)CCN1CCOCC1)c1ccccc1S2 [Moricizine hydrochloride],0.0827
15,Cl.N=C(N=C(N)N)N1CCOCC1 [Moroxidine hydrochloride],1.464
16,CO[C@@]1(NC(=O)C(C(=O)O)c2ccc(O)cc2)C(=O)N2C(C(=O)O)=C(CSc3nnnn3C)CO[C@@H]21 (stereo partly shown) [Moxalactam disodium salt],0.4105
17,CC(=O)Oc1cc(C(C)C)c(OCCN(C)C)cc1C.Cl [Moxisylyte hydrochoride],0.8757
18,COc1nc(C)nc(Cl)c1N=C1NCCN1 [Moxonidine],−0.133
19,COc1c(C)c2c(c(O)c1C/C=C(\C)CCC(=O)O)C(=O)OC2 [Mycophenolic acid],−0.7775
20,O=c1c(O)c(-c2cc(O)c(O)c(O)c2)oc2cc(O)cc(O)c12 [Myricetin],0.713
21,CNc1ncnc2c1ncn2[C@@H]1O[C@H](CO)[C@@H](O)[C@H]1O [N6-methyladenosine],1.002
22,CC(=O)N[C@@H](CC(C)C)C(=O)O [N-Acetyl-L-leucine],0.2361
23,COc1ccc2cc(CCC(C)=O)ccc2c1 [Nabumetone],0.5365
24,NC(=O)c1ccc[n+]([C@@H]2O[C@H](COP(=O)([O-])OP(=O)(O)OC[C@H]3O[C@@H](n4cnc5c(N)ncnc54)[C@H](O)[C@@H]3O)[C@@H](O)[C@H]2O)c1 [Nadide],0.453
